{
  "source": "patent US20230045522A1",
  "about": "“COMPOSITIONS AND METHODS TO MODULATE GLUCOSE HOMEOSTASIS” (The Board of Supervisors of Louisiana State University and …, priority 2019, published 2023)",
  "key": {"C2C12 myotubes [1]": {"test_system": "C2C12 myotubes", "assay": "Uptake of bioactives into C2C12 myotubes treated with PMI-5011 (UPLC/MS)", "settings": "PMI-5011 10 μg/mL", "experimental": "(§1) C2C12 myotubes were incubated with vehicle control (DMSO) or PMI-5011 (10 μg/mL) for 1, 6, or 16 h as indicated. At each time point, (A) the medium and washes were collected at neutral pH, (B) this was followed by collection of surface bound compounds at acidic pH and cell lysates that were separated into soluble (Lysate) and insoluble fractions (Pellet) for analysis of content by UPLC/MS.\n(§2) Murine C2C12 (ATCC; #CRL-1771) or rat L6 myoblasts (ATCC, #CRL-1458) were cultured in DMEM, high glucose (25 mM) with 10% FBS, 2 mM glutamine, and antibiotics (100 units/mL penicillin G and 100 μg/mL streptomycin) in a humidified chamber at 37° C. and 5% CO2. To obtain fully differentiated myotubes, the medium was exchanged for DMEM, high glucose with 2% horse serum, glutamine, and antibiotics when the myoblasts reached confluence. The medium was replaced every 48 hours, and the cells were maintained in this medium until fully differentiated, when the medium was exchanged for DMEM, low glucose (5 mM) with 2% horse serum. The myotubes were fully formed by the fourth day post-induction. The experiments analyzing the impact of each experimental material on insulin signaling in the presence of palmitate-induced insulin resistance were performed as described previously.^31 To determine uptake of bioactives into the myotubes, the cells were treated with PMI-5011 (10 μg/mL) for 0, 1, or 16 h prior to medium collection. At each time point, the cells were thoroughly rinsed with D-Hanks, pH 7.4 at 4° C., followed by incubation with D-Hanks buffer, pH 4.0 at 4° C. for 30 min with gentle rocking to remove surface-bound compounds. Cells were then collected in denaturing buffer containing 50 mM Tris-Cl, pH 7.4 with 150 mM NaCl, 1 mM EDTA, 1% Igepal, 0.5% Na-deoxycholate, 0.1% SDS, protease inhibitors (1 μM PMSF, 10 μg/mL aprotinin, 1 μg/mL pepstatin, 5 μg/mL leupeptin). The harvested cells were sonicated on ice and the supernatant and pellet were collected by centrifugation at 13,400×g for 10 min at 4° C.\n(§3) UPLC/MS Analysis of Cell Preparations. […]"}, "AMPK": {"test_system": "AMPK", "assay": "AMPK Thr172 phosphorylation in C2C12 myotubes (immunoblot)", "type": "cell-based, murine", "settings": "for increase in phosphorylation of AMPK (phospho-AMPK to total AMPK, fold over 0-time): 1 hour of exposure, PMI-5011 10 μg/ml, AICAR 0.5 mM, metformin 2 mM", "description": "Results shown are representative of three independent experiments."}, "C2C12 myotubes [2]": {"test_system": "C2C12 myotubes", "settings": "mouse, 10 μg/mL", "experimental": "as §1, §2, §3"}, "LKB1": {"test_system": "LKB1", "assay": "LKB1 Ser428 phosphorylation in skeletal muscle of mice", "type": "in vivo, C57BL/6J mice", "settings": "gavage; compared to vehicle gavaged mice", "experimental": "Tubulin or β-actin are included as a loading control.\nMale C57BL/6J mice were obtained from Jackson Laboratories (Bar Harbor, Me., USA). All animal experiments were approved by the Rutgers University Animal Care and Use Committee (Protocol #04-023) and were in compliance with the NIH Guide for the Care and Use of Laboratory. The animals were housed singly with a 12 hour light-dark cycle at 24° C. At 4 weeks of age, the mice were placed on a very high fat diet (60 kcal % fat, D12492, Research Diets) for 16 weeks. Body weight was measured weekly. […] Blood glucose levels were assayed at baseline and each hour thereafter up to 6 hours post gavage. The mice were euthanized and tissues were collected for analysis at 6 hours after gavage.\nC2C12 myotube lysates were prepared by sonication in 20 mM Tris pH 7.4, 1% Igepal CA630, 5 mM EDTA with 10 mM Na4P2O7, 100 mM NaF, 2 mM Na3VO4, 1 mM PMSF, 10 μg/ml aprotinin, 1 μg/ml pepstatin, and 5 μg/ml leupeptin. The tissue and cell lysates were centrifuged at 14,000×g for 10 minutes at 4° C. Protein concentrations were determined using BCA assays (Thermo Fisher Scientific, Rockford, Ill., USA) and the resulting supernatants (50 μg) were resolved by 10% SDS-PAGE and subjected to immunoblotting. […] Image J software was used for quantification of the western blot band intensities."}, "SIRT1": {"test_system": "SIRT1", "assay": "SIRT1 protein expression in skeletal muscle of mice", "type": "in vivo, C57BL/6J mice", "settings": "gavage", "experimental": "Male C57BL/6J mice were obtained from Jackson Laboratories (Bar Harbor, Me., USA). […] The animals were housed singly with a 12 hour light-dark cycle at 24° C. At 4 weeks of age, the mice were placed on a very high fat diet (60 kcal % fat, D12492, Research Diets) for 16 weeks. Body weight was measured weekly. […] Blood glucose levels were assayed at baseline and each hour thereafter up to 6 hours post gavage. The mice were euthanized and tissues were collected for analysis at 6 hours after gavage.\nThe tissue and cell lysates were centrifuged at 14,000×g for 10 minutes at 4° C. Protein concentrations were determined using BCA assays (Thermo Fisher Scientific, Rockford, Ill., USA) and the resulting supernatants (50 μg) were resolved by 10% SDS-PAGE and subjected to immunoblotting. Nitrocellulose membranes were incubated with antibodies for 1-2 hours at RT or overnight at 4° C. Image J software was used for quantification of the western blot band intensities."}, "[3]": {"assay": "Blood glucose in very high fat diet obese insulin-resistant mice, 6 h after gavage", "type": "in vivo, C57BL/6J male mice", "settings": "6 hour treatment, PMI-5011 500 mg/kg, KOE 500 mg/kg, KOF 100 mg/kg, 2 at 100 or 300 mg/kg, metformin 300 mg/kg", "experimental": "(A) C57BL/6J male mice were fed a 60% kcal fat diet for 16 weeks prior to a 6 h treatment with labrasol (vehicle), metformin, PMI-5011, reconstituted PMI-5011 (RE=KOE+KOF), KOE, KOF, synthetic 2. […] Statistical significance is reported as mean−/+standard deviation, compared to (vehicle) control.\n(A) Absolute (mg/dL) and (B) percent change in blood glucose levels from baseline for each treatment group six hours after treatment. […] Statistical significance is reported as mean−/+standard deviation, compared to (vehicle) control; ns, not significant; *p<0.05; ** p<0.01; *** p<0.001.\nGlucose Homeostasis. […] To address this, C57BL/6J male mice were fed a very high fat diet (60% kcal fat, VHFD) over 16 weeks to induce obesity, prior to testing the ability of PMI-5011 (500 mg/kg), KOE (500 mg/kg), KOF (100 mg/kg), and purified 2 at 100 or 300 mg/kg body weight to alter blood glucose levels (FIG. 4). Metformin (300 mg/kg) was used as a positive control.\nAnimal Experiments. Male C57BL/6J mice were obtained from Jackson Laboratories (Bar Harbor, Me.). […] The animals were housed singly with a 12 h light-dark cycle at 24° C. […] Body weight was measured weekly. […]\nBlood and Tissue Chemistry. Fasting glucose levels were measured in whole blood using a Breeze2 glucometer (Bayer, Leverkusen, Germany). […]"}},
  "note": "Residues, ends and D or L forms follow the SMILES beside them. *: point of attachment. Cbz = O=C(OCc1ccccc1)*",
  "data": [
    {"molecule": "O=c1cc(Oc2ccc(O)cc2)oc2cc(O)cc(O)c12", "note": "[6-demethoxycapillarisin]", "values": [
      {"measurement": "detection in the pellets of treated cells", "setting": "C2C12 myotubes [1]; insoluble fraction", "value": "not detected"},
      {"measurement": "detection in the samples from treated cells", "setting": "C2C12 myotubes [1]; not quantified", "value": "detected"}
    ]},
    {"molecule": "NC(=O)c1ncn([C@@H]2O[C@H](COP(=O)(O)O)[C@@H](O)[C@H]2O)c1N", "note": "[AICAR, 5-Aminoimidazole-4-carboxamide ribonucleotide]", "values": [
      {"measurement": "increase in phosphorylation of AMPK (phospho-AMPK to total AMPK, fold over 0-time)", "setting": "AMPK", "value": 2.4, "unit": "fold"}
    ]},
    {"molecule": "COc1ccc(CCC(=O)c2ccc(O)cc2O)cc1", "note": "[Compound 2, 2′,4′-dihydroxy-4-methoxydihydrochalcone]", "values": [
      {"measurement": "detectability of 2 after 16 hours", "setting": "C2C12 myotubes [2]", "value": "undetectable after 16 hours"}
    ]},
    {"molecule": "CC(C)C[C@@H](C=O)NC(=O)[C@H](CC(C)C)NC(=O)[C@H](CC(C)C)NC(=O)OCc1ccccc1", "note": "[MG132] (Cbz-Leu-Leu-Leu-aldehyde)", "values": [
      {"measurement": "AMPK phosphorylation at Thr172 under proteasome inhibition", "setting": "AMPK; MG132 10 μM, up to 4 hours", "value": "reduced AMPK phosphorylation"}
    ]},
    {"molecule": "CN(C)C(=N)N=C(N)N", "note": "[metformin]", "values": [
      {"measurement": "phosphorylation of LKB1 Ser428 in skeletal muscle", "setting": "LKB1", "value": "stimulate LKB1 Ser428 phosphorylation"},
      {"measurement": "protein expression of SIRT1", "setting": "SIRT1", "value": "did not observe an increase"},
      {"measurement": "increase in phosphorylation of AMPK (phospho-AMPK to total AMPK, fold over 0-time)", "setting": "AMPK", "value": 1.4, "unit": "fold"},
      {"measurement": "blood glucose levels", "setting": "[3]", "value": "significantly reduced"}
    ]}
  ]
}
